The text below walks through data of patent publication US9718825B2, “N-(4-(azaindazol-6-yl)-phenyl)-sulfonamides and their use as pharmaceuticals” (priority 2013, dated 2017).

Chain of recombinant human SGK-1 enzyme (O00141 whole entry, looked up): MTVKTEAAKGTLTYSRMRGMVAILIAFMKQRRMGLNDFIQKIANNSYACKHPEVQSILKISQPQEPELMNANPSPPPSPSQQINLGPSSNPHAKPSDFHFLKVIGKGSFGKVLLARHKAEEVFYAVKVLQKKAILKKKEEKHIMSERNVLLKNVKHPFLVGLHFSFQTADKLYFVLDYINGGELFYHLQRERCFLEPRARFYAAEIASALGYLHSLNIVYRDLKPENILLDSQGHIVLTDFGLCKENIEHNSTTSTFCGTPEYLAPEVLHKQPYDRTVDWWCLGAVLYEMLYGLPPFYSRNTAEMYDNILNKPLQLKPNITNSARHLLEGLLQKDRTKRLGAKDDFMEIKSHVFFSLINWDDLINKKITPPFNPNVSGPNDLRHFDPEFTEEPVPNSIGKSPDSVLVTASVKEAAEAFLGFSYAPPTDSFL

One experiment concerns the target recombinant human SGK-1 enzyme (Homo sapiens, UniProt O00141). The experiment in a line: Enzymatic activity assay: SGK-1 substrate peptide phosphorylation (Caliper lab-chip mobility shift). The following applies: peptide substrate 1 μM, ATP 10 μM, 60 min at 37° C., read-out: IC50 values for inhibition of SGK-1 enzymatic activity. The experiment is classed as biochemical. As for the experimental part: In one of the cellular assays, the SGK-1 dependent phosphorylation of glycogen synthase kinase 3beta (GSK3beta) in U2OS cells was measured, in another one, a functional electrophysiological assay, the SGK-1 dependent activation of epithelial Na^+ channel (ENaC) currents in A6 cell monolayers, and in another one chondrocyte hypertrophic differentiation in mouse chondrogenic ATDC5 cells.
A) Enzymatic Activity Assay
For the determination of the compound dose response, a 10 mM DMSO stock solution was diluted and tested in a ten-point, three-fold dilution series run in duplicate beginning at 30 μM final concentration. Data were analyzed using a four-parameter curve fit with a fixed minimum and maximum experimentally defined as the average positive and negative controls on each plate.
In the case of `COc1ccc(Cl)c(S(=O)(=O)Nc2ccc(-c3cc4[nH]nc(C)c4c(Oc4ccc(N(C)C)nc4)n3)cc2)c1` [Example 699], the IC50 (in general, the concentration at which inhibition is half-maximal) turned out to be 25 nM.
Still for that read-out and setting: next, `Nc1n[nH]c2cc(-c3ccc(NS(=O)(=O)c4cc(F)cc(F)c4Cl)cc3)nc(C(F)(F)F)c12` [Example 576]: 430 nM.
Regarding `Cc1nc(-c2ccc(NS(=O)(=O)c3cccc(C#N)c3)cc2)nc2[nH]nc(N)c12` [Example 471], the IC50 turned out to be 97 nM.
On to `COc1ccc(F)c(S(=O)(=O)Nc2ccc(-c3cc4[nH]nc(C)c4c(Oc4ccc(OC)nc4)n3)cc2)c1` [Example 653], for which the IC50 was 30 nM.
On to `COCCc1nc(-c2ccc(NS(=O)(=O)c3ccc(F)cc3Cl)cc2)nc2[nH]nc(N)c12` [Example 507], for which the IC50 came out at 1500 nM.
Same read-out and setting: next, `COc1ccc(Cl)c(S(=O)(=O)Nc2ccc(-c3cc4[nH]nc(C)c4c(OCCC(=O)N(C)C)n3)cc2)c1` [Example 689]: 13 nM; `Cc1n[nH]c2cc(-c3ccc(NS(=O)(=O)c4cc(Cl)ccc4Cl)cc3)nc(OC3CC(C)(C)N(C)C(C)(C)C3)c12` [Example 620]: 3.9 nM; `COc1ccc(C#N)c(S(=O)(=O)Nc2ccc(-c3nc(OC4CCC(O)CC4)c4c(C)n[nH]c4n3)cc2)c1` (stereo not drawn) [Example 130]: 13 nM.
Turning to `O=C(Nc1n[nH]c2nc(-c3ccc(NS(=O)(=O)c4cc(Cl)ccc4Cl)cc3)ncc12)c1cccc(Cl)c1Cl` [Example 540], the IC50 was 11 nM.
On the same count and under the same terms, next, `CCOc1nc(-c2ccc(NS(=O)(=O)c3cc(F)c(F)cc3Cl)cc2)cc2[nH]nc(N)c12` [Example 614]: 97 nM; `N#Cc1ccc(Cl)cc1S(=O)(=O)Nc1ccc(-c2cc3[nH]nc(N)c3c(C(F)(F)F)n2)cc1` [Example 570]: 2 nM.
The same measure, in the same setting: next, `COc1cc(Oc2nc(-c3ccc(NS(=O)(=O)c4cc(Cl)ccc4Cl)cc3)cc3[nH]nc(C)c23)ccn1` [Example 669]: 31 nM.
With `CCOc1nc(-c2ccc(NS(=O)(=O)c3cc(OC)ccc3Cl)cc2)cc2[nH]nc(C)c12` [Example 675], the IC50 was 15 nM.
In the case of `COCCc1nc(-c2ccc(NS(=O)(=O)c3cc(F)c(F)cc3Cl)cc2)nc2[nH]nc(N)c12` [Example 510], the IC50 stood at 1500 nM.
Regarding `Cc1n[nH]c2cc(-c3ccc(NS(=O)(=O)c4cc(F)cc(F)c4Cl)cc3)nc(OC3CCN(C4CCC4)CC3)c12` [Example 638], the IC50 amounted to 11 nM.
As for `Cc1ccc(F)c(S(=O)(=O)Nc2ccc(-c3nc(O)c4cn[nH]c4n3)cc2)c1` [Example 108], the IC50 was 25 nM.
As for `Cc1n[nH]c2cc(-c3ccc(NS(=O)(=O)c4cc(Cl)ccc4F)cc3)nc(OCCC(=O)N(C)C)c12` [Example 687], the IC50 was 15 nM.
The same measure, in the same setting: next, `CCCOc1nc(-c2ccc(NS(=O)(=O)c3cc(Cl)ccc3Cl)cc2)cc2[nH]nc(N)c12` [Example 664]: 13 nM.
Still for that read-out and setting: next, `CC(C)COc1nc(-c2ccc(NS(=O)(=O)c3cc(F)c(F)cc3Cl)cc2)nc2[nH]nc(N)c12` [Example 325]: 1100 nM; `COc1ccc(Oc2nc(-c3ccc(NS(=O)(=O)c4cc(C)ccc4F)cc3)cc3[nH]nc(C)c23)cn1` [Example 654]: 37 nM; `COCCc1nc(-c2ccc(NS(=O)(=O)c3cc(Cl)ccc3F)cc2)nc2[nH]nc(N)c12` [Example 525]: 25 nM.
`COc1ccc(Oc2nc(-c3ccc(NS(=O)(=O)c4cc(Cl)ccc4F)cc3)cc3[nH]nc(C)c23)cn1` [Example 634]: the IC50 stood at 23 nM.

Still in this experiment, the particulars now being: read-out: IC50 values for inhibition of SGK-1 enzymatic activity, peptide substrate 1 μM, ATP 10 μM, 60 min at 37° C.
With `O=S(=O)(Nc1ccc(-c2nc(-c3cccnc3)c3cn[nH]c3n2)cc1)c1cc(Cl)ccc1Cl` [Example 5, 2,5-Dichloro-N-[4-(4-pyridin-3-yl-1H-pyrazolo[3,4-d]pyrimidin-6-yl)-phenyl]-benzenesulfonamide], the IC50 is less than 1.2 nM.
Still for that read-out and setting: next, `COc1nc(-c2ccc(NS(=O)(=O)c3cc(Cl)ccc3F)cc2)nc2[nH]nc(N)c12` [Example 7, N-[4-(3-Amino-4-methoxy-1H-pyrazolo[3,4-d]pyrimidin-6-yl)-phenyl]-5-chloro-2-fluoro-benzenesulfonamide]: less than 1.5 nM.
